The values that follow come from patent US20240239765A1, “GLYCINE N-METHYLTRANSFERASE SPECIFIC ENHANCER AND PREPARATION METHOD AND USES THEREOF” (KAOHSIUNG MEDICAL UNIVERSITY, priority 2020, published 2024).

One may read the IC50 as the point on the concentration scale where inhibition reaches its midpoint. A lower IC50 goes with inhibition by little substance.

One assay concerns PC3. Put plainly: Cell viability, prostate cancer cell line PC3. The class given is cell-based. To be noted: Homo sapiens, PC-3. As for the experimental part: (§1) Human liver cancer cell lines (Huh7 and HepG2), human pancreatic cancer cell line (PANC1) and prostate cancer cell line (PC3) were cultured in Dulbecco's modified Eagle's medium (DMEM) supplemented with 10% fetal bovine serum (FBS) (HyClone, Logan, UT, USA), L-glutamine (2 mM), streptomycin (100 μg/mL), penicillin (100 U/mL) and nonessential amino acids (0.1 mM). Human pancreatic cancer cell line BxPC3 was cultured in the medium of Roswell Park Memorial Institute (RPMI) 1640 with the same supplements as in DMEM. All cell lines were maintained at 37 °C in a humidified CO2 incubator. H7GPL stable cells established by lentiviral-system was grown in DMEM supplemented with 1 μg/mL puromycin. The sorafenib were purchased from Sigma-Aldrich (St Louis, MO, USA).
(§2) Huh7, HepG2, PANC1, PC3, and BxPC3 cells were seeded in 96-well plates for 24 hours and exposed to the drugs with various concentrations. AlamarBlue® was added in to the cells and further incubated for 4 hours to assess the cytotoxic effect of the tested drugs. Blank wells (without cells) containing the same amount of test substances were used for background subtraction, and the relative number of viable cells were represented as the percentage of the mean of the relative solvent controls. AlamarBlue® assay (AbD Serotec, Oxford, UK) was used to assess cell viability according to the manufacturer's instructions.

Assay [1] relates to liver cancer cell lines (Huh7, Hep3B, HepG2). Put plainly: Cell proliferation in liver cancer cell lines. The class given is cell-based, Human. The method, then: as §2
In the next assay the test system is p27 mRNA. Put plainly: p27 mRNA expression in Huh7 cells (qRT-PCR). The class given is cell-based, Human. As to conditions: after K117 treatment. As for the experimental part:
(§3) RNA was isolated by using Trizol reagent (Life Technologies) according to the manufacturer's protocol. Cellular RNA was reverse transcribed into complementary DNA using a SuperScript II RNase H-Reverse Transcriptase Kit (Life Technologies). PCR reactions were carried out using a Super Script II Reverse Transcriptase Kit (Invitrogen Inc., Carlsbad, CA, USA) on an Applied Biosystems Step-One-plus real-time PCR system (Applied Biosystems, Foster City, CA, USA). The mRNA level of TATA-box binding protein (TBP) was used as an internal control. The primer pairs used for qRT-PCR were: • TBP forward: SEQ ID NO: 1, • reverse: SEQ ID NO: 2, • MYC forward: SEQ ID NO: 3, • reverse: SEQ ID NO: 4, • p21 forward: SEQ ID NO: 5, • reverse: SEQ ID NO: 6, • p27 forward: SEQ ID NO: 7, • reverse: SEQ ID NO: 8, • GNMT forward: SEQ ID NO: 9, and • reverse: SEQ ID NO: 10.
Background: Real-time PCR tracks product formation cycle by cycle.

Another assay concerns BxPC3. Description: Cell viability, pancreatic cancer cell line BxPC3. The class given is cell-based. As to conditions: Homo sapiens, BXPC-3; BxPC3, pancreas. The method, then: as §1, §2
The subject of the next assay is PANC1. Put plainly: Cell viability, pancreatic cancer cell line PANC1. Type of assay: cell-based. As to conditions: Homo sapiens, PANC-1; PANC1, pancreas. The method, then:
as §1, §2

A further assay deals with MYC protein. Put plainly: MYC protein in Huh7 xenograft tumors (immunoblotting). Type of assay: in vivo. As to conditions: Huh7 xenograft tumors of treated mice. As for the experimental part:
(§4) Cells or xenograft tumors were harvested for lysate preparation by using RIPA buffer containing protease inhibitor cocktail (Roche Molecular Biochemicals) and phosphatase inhibitors (10 mM Na3VO4, 1 mM NaF, 5 mM NaPPi). Protein concentrations were quantified by Bio-Rad Protein Assay (Bio-Rad) and immunoblotting was carried out as previous description (Yen et al., 2012). Anti-MYC (D84C12, Cell Signaling Technology), anti-GNMT (YMAC-Bioteck) and anti-β-actin (AC-15, Sigma-Aldrich) antibodies were used according to the descriptions in manufacturer's instructions.
All animal experiments were reviewed and approved by the Institutional Animal Care and Use Committee of Kaohsiung Medical University, and performed in accordance with relevant guidelines. Five to six-week-old male NOD-SCID mice were subcutaneously injected with Huh7 cells (1×10^6) in the right flank. Upon detection of palpable tumor, mice were randomly grouped and treated with 300 mpk, 100 mpk or 25 mpk of LKY4606D or KYT5397 and drug vehicle orally every day for 28 days. For K117, doses of 10 mpk and 25 mpk were used. For Sorafenib, dose of 25 mpk was used. Tumor growth was monitored (every day or three times per week) by measuring the length (L) and the width (W) of the tumor using Vernier caliper. Tumor volume (TV) was calculated by using the formula: volume=(L×W^2)/2. […]
(In western blotting, separated proteins are transferred to a membrane and probed.)

The next assay deals with Huh7 xenograft tumor. The class given is in vivo. An excerpt:
All animal experiments were reviewed and approved by the Institutional Animal Care and Use Committee of Kaohsiung Medical University, and performed in accordance with relevant guidelines. Five to six-week-old male NOD-SCID mice were subcutaneously injected with Huh7 cells (1×10^6) in the right flank. Upon detection of palpable tumor, mice were randomly grouped and treated with 300 mpk, 100 mpk or 25 mpk of LKY4606D or KYT5397 and drug vehicle orally every day for 28 days. For K117, doses of 10 mpk and 25 mpk were used. For Sorafenib, dose of 25 mpk was used. Tumor growth was monitored (every day or three times per week) by measuring the length (L) and the width (W) of the tumor using Vernier caliper. Tumor volume (TV) was calculated by using the formula: volume=(L×W^2)/2. All drugs were dissolved in 0.5% carboxymethyl cellulose sodium salt.

For assay [2], the system named is −1812/+14 GNMT promoter-luciferase reporter cell line H7GPL. Description: GNMT induction capacity assay (GNMT promoter-luciferase reporter, H7GPL cells). The class given is cell-based, Human. To be noted: for Relative Luciferase Activity (induction capacity): H7GPL cells. As for the experimental part:
A −1812/+14 GNMT promoter-luciferase reporter cell line H7GPL was constructed. For the primary analysis, H7GPL cells seeded in 96-well plates were treated with individual drugs of 10 μM for 24 hours and then were lysed for the luciferase activity assay using Luciferase Assay System (Promega, Madison, WI, USA). Then, the secondary analysis was performed using the compounds with different doses. The same confirmed hits were used for cytotoxicity by using alamarBlue® reagent (AbD serotec, Oxford, UK). The cytotoxicity was measured according to the manufacturer's recommendation. Top hits were used for further studies.

The next assay has as its system p21 mRNA. Put plainly: p21 mRNA expression in Huh7 cells (qRT-PCR). Type of assay: cell-based, Human. As to conditions: after K117 treatment. The method, then: as §3
Another assay concerns DU145. Put plainly: Cell viability, prostate cancer cell line DU145. As to conditions: Homo sapiens, DU-145. The class given is cell-based.
For another assay, the system named is GNMT protein. Description: Endogenous GNMT protein in Huh7 cells (immunoblotting). Type of assay: cell-based, Human. The method, then: as §4
In a further assay the test system is Huh7 and HepG2 cells. Description: Colony formation assay. The class given is cell-based, Human.
A further assay deals with MYC mRNA. Put plainly: MYC mRNA expression in Huh7 cells (qRT-PCR). Type of assay: cell-based, Human. As for the experimental part:
as §3

In a further assay the test system is GNMT mRNA. Description: Endogenous GNMT mRNA in Huh7 cells (qRT-PCR). Type of assay: cell-based, Human. The method, then:
as §3

Another assay concerns GNMT expression / MYC. As to conditions: pathogenesis of liver cancer, known; cited from earlier work.

With `C/C(=N\NC(=O)c1cccnc1N)c1ccccn1` [K117, N′-(1-(pyridin-2-yl)ethylidene)-2-carbohydrazide], the IC50 came out at 15.3 µM in the assay with PC3, 1.2 µM with BxPC3, 2.2 µM in the assay with PANC1 and 40.8 µM with DU145. In assay [1], the “Proliferation of liver cancer cells” value is “inhibited proliferation of all tested liver cancer cells in a dose-dependent manner”. Further, the “p27 mRNA expression” value in the assay with p27 mRNA is on record as “increased”. The “MYC protein expression in xenograft tumors” value in the assay on MYC protein was “reduced”. Further, the “Tumor growth versus control group” value with Huh7 xenograft tumor (K117 10 mpk and 25 mpk) is “significant tumor growth reduction”. Also, the “Tumor growth effect compared with Sorafenib” value with Huh7 xenograft tumor (K117 10 mpk vs Sorafenib 25 mpk) was “same effect as Sorafenib 25 mpk”. The results for the “Relative Luciferase Activity (induction capacity)” value in assay [2] (5.0 μM) and in assay [2] (10 μM) were 6.52 ± 0.12 and 10.36 ± 0.35, respectively. Also, in [2] (SAR study), the “Induction of GNMT expression compared with K78” value is given as “more effective than K78”. Also, in assay [2] (dose response (FIG. 2B, 4B)), the “Induction of luciferase activity / GNMT promoter activity” value was “induced GNMT promoter activity in a dose-dependent manner”. Further, the “p21 mRNA expression” value with p21 mRNA is given as “increased”. Besides, in the assay on GNMT protein, the “Endogenous GNMT expression at protein level” value is “induced”. Further, in the assay with Huh7 and HepG2 cells, the Colony formation entry is “reduced the colony formation of Huh7 and HepG2 cells in a dose-dependent manner”. Besides, the “MYC mRNA expression” value with MYC mRNA is given as “suppressed c-Myc mRNA expression dose-dependently”. Further, the “Endogenous GNMT expression at mRNA level” value with GNMT mRNA is “induced”.
Turning to `O=C(OC[C@H]1O[C@@H](OC(=O)c2cc(O)c(O)c(O)c2)[C@H](OC(=O)c2cc(O)c(O)c(O)c2)[C@@H](OC(=O)c2cc(O)c(O)c(O)c2)[C@@H]1OC(=O)c1cc(O)c(O)c(O)c1)c1cc(O)c(O)c(O)c1` [PGG, 1,2,3,4,6-penta-O-galloyl-Beta-D-glucopyranoside], the “GNMT expression / MYC regulation” value in the assay on GNMT expression / MYC is reported as “enhanced GNMT expression through MYC downregulation”.
Consider `CNC(=O)c1cc(Oc2ccc(NC(=O)Nc3ccc(Cl)c(C(F)(F)F)c3)cc2)ccn1` [Sorafenib, sorafenib, reference compound], for which, in the assay on Huh7 xenograft tumor (oral, K78 25, 100, 300 mpk, sorafenib comparison control), the “Tumor growth versus solvent control” value is “most significant difference”.
